{"source": "the supplement of paper PMC10307832", "experiment_in_all_cases": "relative viability (nuclei count vs DMSO), 5 days (fraction); higher = more cells survive", "key": {"LCLC-97TM1": {"tested_on": "LCLC-97TM1", "procedure,_shortened": "(§1)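 One day after seeding in 1536-well plates, lung cancer cell lines were dosed by pin tool. Dosing was either single-drug or a fixed anchor-drug dose plus five library-drug doses (not always all listed) in √10 steps. After 5 days, nuclei were stained in one fix-and-stain step and counted on 4× images, and relative viability is the nuclei count of treated wells over that of vehicle wells, given as the median of duplicate plates.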"}, "NCI-H1792": {"tested_on": "NCI-H1792", "procedure,_shortened": "as §1"}, "NCI-H1650": {"tested_on": "NCI-H1650", "procedure,_shortened": "as §1"}, "H3255": {"tested_on": "H3255", "procedure,_shortened": "as §1"}, "NCI-H661": {"tested_on": "NCI-H661", "procedure,_shortened": "as §1"}, "A-427": {"tested_on": "A-427", "procedure,_shortened": "as §1"}, "NCI-H460": {"tested_on": "NCI-H460", "procedure,_shortened": "as §1"}, "NCI-H1651": {"tested_on": "NCI-H1651", "procedure,_shortened": "as §1"}, "NCI-H441": {"tested_on": "NCI-H441", "procedure,_shortened": "as §1"}, "NCI-H2023": {"tested_on": "NCI-H2023", "procedure,_shortened": "as §1"}, "LC-2-ad": {"tested_on": "LC-2-ad", "procedure,_shortened": "as §1"}, "NCI-H650": {"tested_on": "NCI-H650", "procedure,_shortened": "as §1"}, "NCI-H520": {"tested_on": "NCI-H520", "procedure,_shortened": "as §1"}, "201T": {"tested_on": "201T", "procedure,_shortened": "as §1"}, "NCI-H1944": {"tested_on": "NCI-H1944", "procedure,_shortened": "as §1"}, "PC-3 [JPC-3]": {"tested_on": "PC-3 [JPC-3]", "procedure,_shortened": "as §1"}, "BEN": {"tested_on": "BEN", "procedure,_shortened": "as §1"}, "NCI-H596": {"tested_on": "NCI-H596", "procedure,_shortened": "as §1"}, "CAL-12T": {"tested_on": "CAL-12T", "procedure,_shortened": "as §1"}, "NCI-H2087": {"tested_on": "NCI-H2087", "procedure,_shortened": "as §1"}, "NCI-H1915": {"tested_on": "NCI-H1915", "procedure,_shortened": "as §1"}}, "data": [{"smiles": "O=C(O)c1ccc(-c2c[nH]c3ncc(-c4ccccc4)cc23)cc1C1CCCC1", "note": "+ Nc1nc2[nH]cc(CCc3ccc(C(=O)N[C@@H](CCC(=O)O)C(=O)O)cc3)c2c(=O)[nH]1 [Pemetrexed] (partner 0.2 µM)", "values": [{"measurement": "relative viability", "setting": "LCLC-97TM1; first compound 0.04 µM", "result": 0.196}, {"measurement": "relative viability", "setting": "LCLC-97TM1; first compound 0.1265 µM", "result": 0.204}, {"measurement": "relative viability", "setting": "LCLC-97TM1; first compound 0.4 µM", "result": 0.157}, {"measurement": "relative viability", "setting": "LCLC-97TM1; first compound 1.265 µM", "result": 0.153}, {"measurement": "relative viability", "setting": "NCI-H1792; first compound 0.04 µM", "result": 0.713}, {"measurement": "relative viability", "setting": "NCI-H1792; first compound 0.1265 µM", "result": 0.968}, {"measurement": "relative viability", "setting": "NCI-H1792; first compound 0.4 µM", "result": 1.05}, {"measurement": "relative viability", "setting": "NCI-H1792; first compound 1.265 µM", "result": 0.734}, {"measurement": "relative viability", "setting": "NCI-H1650; first compound 0.04 µM", "result": 0.352}, {"measurement": "relative viability", "setting": "NCI-H1650; first compound 0.1265 µM", "result": 0.466}, {"measurement": "relative viability", "setting": "NCI-H1650; first compound 0.4 µM", "result": 0.383}, {"measurement": "relative viability", "setting": "NCI-H1650; first compound 1.265 µM", "result": 0.33}, {"measurement": "relative viability", "setting": "H3255; first compound 0.04 µM", "result": 0.485}, {"measurement": "relative viability", "setting": "H3255; first compound 0.1265 µM", "result": 0.58}, {"measurement": "relative viability", "setting": "H3255; first compound 0.4 µM", "result": 0.622}, {"measurement": "relative viability", "setting": "H3255; first compound 1.265 µM", "result": 0.582}, {"measurement": "relative viability", "setting": "NCI-H661; first compound 0.04 µM", "result": 0.881}, {"measurement": "relative viability", "setting": "NCI-H661; first compound 0.1265 µM", "result": 0.918}, {"measurement": "relative viability", "setting": "NCI-H661; first compound 0.4 µM", "result": 0.92}, {"measurement": "relative viability", "setting": "NCI-H661; first compound 1.265 µM", "result": 0.892}, {"measurement": "relative viability", "setting": "A-427; first compound 0.04 µM", "result": 0.959}, {"measurement": "relative viability", "setting": "A-427; first compound 0.1265 µM", "result": 1.06}, {"measurement": "relative viability", "setting": "A-427; first compound 0.4 µM", "result": 0.943}, {"measurement": "relative viability", "setting": "A-427; first compound 1.265 µM", "result": 0.843}, {"measurement": "relative viability", "setting": "NCI-H460; first compound 0.04 µM", "result": 0.0611}, {"measurement": "relative viability", "setting": "NCI-H460; first compound 0.1265 µM", "result": 0.0579}, {"measurement": "relative viability", "setting": "NCI-H460; first compound 0.4 µM", "result": 0.0617}, {"measurement": "relative viability", "setting": "NCI-H460; first compound 1.265 µM", "result": 0.0609}, {"measurement": "relative viability", "setting": "NCI-H1651; first compound 0.04 µM", "result": 0.482}, {"measurement": "relative viability", "setting": "NCI-H1651; first compound 0.1265 µM", "result": 0.603}, {"measurement": "relative viability", "setting": "NCI-H1651; first compound 0.4 µM", "result": 0.641}, {"measurement": "relative viability", "setting": "NCI-H1651; first compound 1.265 µM", "result": 0.527}, {"measurement": "relative viability", "setting": "NCI-H441; first compound 0.04 µM", "result": 0.33}, {"measurement": "relative viability", "setting": "NCI-H441; first compound 0.1265 µM", "result": 0.285}, {"measurement": "relative viability", "setting": "NCI-H441; first compound 0.4 µM", "result": 0.256}, {"measurement": "relative viability", "setting": "NCI-H441; first compound 1.265 µM", "result": 0.235}, {"measurement": "relative viability", "setting": "NCI-H2023; first compound 0.04 µM", "result": 0.23}, {"measurement": "relative viability", "setting": "NCI-H2023; first compound 0.1265 µM", "result": 0.271}, {"measurement": "relative viability", "setting": "NCI-H2023; first compound 0.4 µM", "result": 0.28}, {"measurement": "relative viability", "setting": "NCI-H2023; first compound 1.265 µM", "result": 0.237}, {"measurement": "relative viability", "setting": "LC-2-ad; first compound 0.04 µM", "result": 0.302}, {"measurement": "relative viability", "setting": "LC-2-ad; first compound 0.1265 µM", "result": 0.272}, {"measurement": "relative viability", "setting": "LC-2-ad; first compound 0.4 µM", "result": 0.278}, {"measurement": "relative viability", "setting": "LC-2-ad; first compound 1.265 µM", "result": 0.261}, {"measurement": "relative viability", "setting": "NCI-H650; first compound 0.04 µM", "result": 0.941}, {"measurement": "relative viability", "setting": "NCI-H650; first compound 0.1265 µM", "result": 0.975}, {"measurement": "relative viability", "setting": "NCI-H650; first compound 0.4 µM", "result": 0.873}, {"measurement": "relative viability", "setting": "NCI-H650; first compound 1.265 µM", "result": 0.782}, {"measurement": "relative viability", "setting": "NCI-H520; first compound 0.04 µM", "result": 0.789}, {"measurement": "relative viability", "setting": "NCI-H520; first compound 0.1265 µM", "result": 0.633}, {"measurement": "relative viability", "setting": "NCI-H520; first compound 0.4 µM", "result": 0.655}, {"measurement": "relative viability", "setting": "NCI-H520; first compound 1.265 µM", "result": 0.474}, {"measurement": "relative viability", "setting": "201T; first compound 0.04 µM", "result": 0.342}, {"measurement": "relative viability", "setting": "201T; first compound 0.1265 µM", "result": 0.326}, {"measurement": "relative viability", "setting": "201T; first compound 0.4 µM", "result": 0.357}, {"measurement": "relative viability", "setting": "201T; first compound 1.265 µM", "result": 0.343}, {"measurement": "relative viability", "setting": "NCI-H1944; first compound 0.04 µM", "result": 0.692}, {"measurement": "relative viability", "setting": "NCI-H1944; first compound 0.1265 µM", "result": 0.799}, {"measurement": "relative viability", "setting": "NCI-H1944; first compound 0.4 µM", "result": 0.69}, {"measurement": "relative viability", "setting": "NCI-H1944; first compound 1.265 µM", "result": 0.565}, {"measurement": "relative viability", "setting": "PC-3 [JPC-3]; first compound 0.04 µM", "result": 1.05}, {"measurement": "relative viability", "setting": "PC-3 [JPC-3]; first compound 0.1265 µM", "result": 1.18}, {"measurement": "relative viability", "setting": "PC-3 [JPC-3]; first compound 0.4 µM", "result": 1.1}, {"measurement": "relative viability", "setting": "PC-3 [JPC-3]; first compound 1.265 µM", "result": 1.03}, {"measurement": "relative viability", "setting": "BEN; first compound 0.04 µM", "result": 0.598}, {"measurement": "relative viability", "setting": "BEN; first compound 0.1265 µM", "result": 0.862}, {"measurement": "relative viability", "setting": "BEN; first compound 0.4 µM", "result": 0.792}, {"measurement": "relative viability", "setting": "BEN; first compound 1.265 µM", "result": 0.788}, {"measurement": "relative viability", "setting": "NCI-H596; first compound 0.04 µM", "result": 0.472}, {"measurement": "relative viability", "setting": "NCI-H596; first compound 0.1265 µM", "result": 0.53}, {"measurement": "relative viability", "setting": "NCI-H596; first compound 0.4 µM", "result": 0.531}, {"measurement": "relative viability", "setting": "NCI-H596; first compound 1.265 µM", "result": 0.479}, {"measurement": "relative viability", "setting": "CAL-12T; first compound 0.04 µM", "result": 1.15}, {"measurement": "relative viability", "setting": "CAL-12T; first compound 0.1265 µM", "result": 1.04}, {"measurement": "relative viability", "setting": "CAL-12T; first compound 0.4 µM", "result": 1.1}, {"measurement": "relative viability", "setting": "CAL-12T; first compound 1.265 µM", "result": 1.09}, {"measurement": "relative viability", "setting": "NCI-H2087; first compound 0.04 µM", "result": 0.576}, {"measurement": "relative viability", "setting": "NCI-H2087; first compound 0.1265 µM", "result": 0.652}, {"measurement": "relative viability", "setting": "NCI-H2087; first compound 0.4 µM", "result": 0.653}, {"measurement": "relative viability", "setting": "NCI-H2087; first compound 1.265 µM", "result": 0.585}, {"measurement": "relative viability", "setting": "NCI-H1915; first compound 0.04 µM", "result": 0.493}, {"measurement": "relative viability", "setting": "NCI-H1915; first compound 0.1265 µM", "result": 0.454}, {"measurement": "relative viability", "setting": "NCI-H1915; first compound 0.4 µM", "result": 0.481}, {"measurement": "relative viability", "setting": "NCI-H1915; first compound 1.265 µM", "result": 0.448}]}]}
